Measured values published in ChEMBL document CHEMBL3862038, “When Does Chemical Elaboration Induce a Ligand To Change Its Binding Mode?” (J Med Chem, 2017).

Target: Heat shock protein HSP90 (Homo sapiens, UniProt P07900+P08238)
Assay: Inhibition of HSP90 (unknown origin)

COc1cccc(C(=O)NC2CCC3CCC(C2)N3c2ccc(C(=O)NCc3ccccc3)cc2)c1C (stereo unspecified)
Kd: 800 µM
